According to patent US20060063930A1, “Compositions and methods comprising proteinase activated receptor antagonists” (priority 2004, published 2006):
Structures can show the parent of a compound that is named as a salt.

Test system: PAR-2
Assay: Inhibition of PAR-2 activating peptide (AP2) calcium signaling in cells pretreated with antagonist
Assay type: cell-based, human
Design: key to PAR-2 AP2 Signaling Treated/Control (T/C) / PAR-2 AP2 Signaling Treated/Control: AUC of calcium mobilization, treated ÷ control wells
Details: mimetic antagonists; AUC of calcium mobilization treated/control; initially screened at 1 mM compound
Protocol: In order to assess the potential of peptides and molecules selected above to block PAR-2 signaling, cells were pretreated with potential antagonist peptides for a predetermined amount of time and were subsequently treated with various GPCR agonists. Confluent Lewis lung carcinoma (LLC) cells were loaded for 30-60 minutes with the fluorescent dye Fluo-4. Final concentration 4 uM Fluo-4, 0.02% pluronic acid in physiological buffer. Cells were then washed with assay buffer, (HBSS containing 1 mM CaCl2, 1 mM MgSO4, and 2.5 mM probenecid). Cells were stimulated with various doses of PAR-2 activating peptide, PAR-1 activating peptide or ATP. Fluorescence was monitored using a Wallac 1470 fluorescent plate reader. (See Al-ani et. al Journal of Pharmacology and Experimental Therapeutics 290:2, 753-760). Additional compound screening was performed using U87-MG human glioma cells. In this assay cells were labeled with FLIPR Calcium 3 dye (Component A), which was dissolved in 10 mls of Assay Buffer without Probenecid. Loading buffer was prepared by diluting Component A with an additional 90 mls of Assay Buffer without Probenecid, giving a total volume of a 100 ml. For plate loading, 11 mls of FLIPR Calcium 3 dye (Component A) is placed into a 15 ml conical tube+110 μl of 250 mM Probenecid, at a final in-well working volume of 2.5 mM. Finally, 50 μl of Calcium 3 dye was added wells containing 100 μl media, and incubated 1 hr, 37° C., 5% CO2. Calcium signaling was then measured using a Flexstation II (Molecular Devices) following manufacturer's instructions.
Potential antagonist compounds were initially screened at 1 mM compound concentration. Those compounds with activity were then subjected to additional confirmatory testing. Activity is reported as treated/controlled (T/C) where the area under the curve (AUC) of calcium mobilization plots in treated wells is divided by the AUC of calcium mobilization plots in control wells to generate a measure of inhibition.

In order of falling “PAR-2 AP2 Signaling Treated/Control” value:
1. CCCCCC(=O)N1CCN(C(=O)CCCCCN)CC1 [ENMD-1039, N^1-hexanoyl-N^4-[6-aminohexanoyl]-piperazine]  1.34
2. CCCCC(=O)N1CCN(C(=O)CCCCCN)CC1 [ENMD-1040, N^1-pentanoyl-N-4-[6′-aminohexanoyl]-piperazine]  1.04
3. O=C(Cc1ccccn1)N1CCN(C(=O)CC2CCCCC2)CC1 [ENMD-1069, 1-(4-(2-cyclohexylacetyl)piperazin-1-yl)-2-(pyridin-2-yl)-acetaldehyde]  0.94
4. O=C(Cc1ccncc1)N1CCN(C(=O)CC2CCCCC2)CC1 [ENMD-1079, 1-(4-(2-cyclohexylacetyl)piperazin-1-yl)-2-(pyridin-4-yl)-acetaldehyde]  0.90
5. Br.CC(C)CC(=O)NCCNC(=O)CCCCCN [ENMD-1393, N-(2-(3-methylbutanamido)ethyl)-6-aminohexan-amide hydrobromide]  0.81
6. N=C(N)NCCCCCC(=O)N1CCN(C(=O)Cc2ccccc2)CC1 [ENMD-1077, 4-phenylacetoyl-piperazin-1-(5′-carbamoyl-pentylguanidine)]  0.80
7. CC(C)CC(=O)N1CCN(C(=O)CCCCCNC(=N)N)CC1 [ENMD-1067, 4-(3-methylbutanoyl)piperazin-1-(5′-carbamoyl-pentylguanidine)]  0.77
8. Nc1ccc(CC(=O)N2CCN(C(=O)Cc3ccccc3)CC2)cc1 [ENMD-1075, N^1-2-phenylethanoyl-N^4-[2-(4-aminophenyl)-ethanoyl]-piperazine]  0.71
9. COC(=O)CCCCC(=O)N1CCN(C(=O)CC(C)C)CC1 [ENMD-1402, Methyl 6-(4-(3-methylbutanoyl)piperazin-1-yl)-6-oxohexanoate]  0.64
10. N=C(N)NCCCCCC(=O)N1CCN(C(=O)CC2CCCCC2)CC1 [ENMD-1072, 4-(1-cyclohexylacetyl)piperazin-1-(5′-carbamoyl-pentylguanidine)]  0.56
11. NCCCCCC(=O)N1CCN(C(=O)CC2CCCCC2)CC1 [ENMD-1073, N′-(2-cyclohexylethanoyl)-N^4-(6-aminohexanoyl)piperazine]  0.56
12. CCCC(=O)N1CCN(C(=O)CCCCCN)CC1 [ENMD-1036, N^1-butanoyl-N-4-[6′-aminohexanoyl]-piperazine]  0.55
13. CCC(=O)N1CCN(C(=O)CCCCCN)CC1 [ENMD-1037, N′-propanoyl-N-4-[6′-aminohexanoyl]-piperazine]  0.55
14. CC(C)CNC(=O)c1ccc(OCCCN)cc1 [ENMD-1410, 4-(3-aminopropoxy)-N-isobutyl-benzamide]  0.55
15. CC(C)CC(=O)NCCNC(=O)Cc1ccc(N)cc1.Cl [ENMD-1416, N-(2-(2-(4-aminophenyl)acetamido)ethyl)-3-methylbutan-amide hydrochloride]  0.48
16. NCCCNC(=O)c1ccc(OCC2CCCCC2)cc1 [ENMD-1409, N-(3-aminopropyl)-4-(cyclohexylmethoxy)-benzamide]  0.45
17. NCCCOc1ccc(C(=O)NCC2CCCCC2)cc1 [ENMD-1411, 4-(3-aminopropoxy)-N-(cyclohexylmethyl)-benzamide]  0.43
18. NCCCCCC(=O)N1CCN(C(=O)Cc2ccccc2)CC1 [ENMD-1078, N^1-(2-phenylethanoyl)-N^4-(6-aminohexanoyl)piperazine]  0.42
19. CC[C@@H](C)C(=O)N1CCN(C(=O)CCCCCN)CC1 [ENMD-1034, N^1-[R-2-methylbutanoyl]-N^4-[6′-aminohexanoyl]-piperazine]  0.39
20. NCCCCCC(=O)NCCNC(=O)CC1CCCCC1 [ENMD-1417, N-(2-(2-cyclohexylacetamido)ethyl)-6-aminohexan-amide]  0.38
21. CC(C)CCCC(=O)N1CCN(C(=O)CCCCCN)CC1 [ENMD-1038, N^1-[5′-methylhexanoyl]-N^4-[6′-aminohexanoyl]-piperazine]  0.35
22. O=C(Cc1cccnc1)N1CCN(C(=O)CC2CCCCC2)CC1 [ENMD-1074, 1-(4-(2-cyclohexylacetyl)piperazin-1-yl)-2-(pyridin-3-yl)-acetaldehyde]  0.35
23. CC(C)COc1ccc(C(=O)NCCCN)cc1 [ENMD-1408, N-(3-aminopropyl)-4-isobutoxy-benzamide]  0.35
24. CC(C)CC(=O)N1CCN(C(=O)Cc2ccc(N)cc2)CC1 [ENMD-1065, N^1-3-methylbutyryl-N^4-[2-(4-aminophenyl)-ethanoyl]-piperazine]  0.34
25. CC(C)C(=O)N1CCN(C(=O)CCCCCN)CC1 [ENMD-1035, N′-[2′-methylpropanoyl]-N^4-[6′-aminohexanoyl]-piperazine]  0.32
26. CCC(C)C(=O)N1CCN(C(=O)CCCCCN)CC1 (stereo not drawn) [ENMD-1033, N′-[S-2-methylbutanoyl]-N^4-[6′-aminohexanoyl]-piperazine]  0.28
27. NCCCCNC(=O)c1ccc(OCC2CCCCC2)cc1 [ENMD-1406, N-(4-aminobutyl)-4-(cyclohexylmethoxy)-benzamide]  0.24
28. CC(C)CC(=O)N1CCN(C(=O)Cc2cnc[nH]2)CC1 [ENMD-1066, 1-(4-(2-(1H-imidazol-4-yl)acetyl)piperazin 1-yl)-3-methylbutan-1-amide hydrochloride]  0.20
29. CC(C)CCC(=O)N1CCN(C(=O)CCCCCN)CC1 [ENMD-1041, N^1-[4′-methylpentanoyl]-N^4-[6′-aminohexanoyl]-piperazine]  0.17
30. O=C(Cc1cnc[nH]1)N1CCN(C(=O)CC2CCCCC2)CC1 [ENMD-1071, 1-(4-(2-(1H-imidazol-4-yl)acetyl)piperazin-1-yl)-1-cyclohexyl-acetamide hydrochloride]  0.16
31. CC(C)CC(=O)Nc1ccc(NC(=O)CCCN)cc1 [ENMD-1397, N-(4-(3-methylbutanamido)phenyl)-4-aminobutyl-amide hydrobromide]  0.15
32. O=C(Cc1ccccc1)N1CCN(C(=O)Cc2cnc[nH]2)CC1 [ENMD-1076, 1-(4-(2-(1H-imidazol-4-yl)acetyl)piperazin-1-yl)-1-benzyl-amide]  0.14
33. CC(C)COc1ccc(C(=O)NCCCCN)cc1 [ENMD-1405, N-(4-aminobutyl)-4-isobutoxy-benzamide]  0.13
34. Cl.NC1CCC(C(=O)Nc2ccc(NC(=O)CC3CCCCC3)cc2)C1 (stereo in doubt) [ENMD-1768, (1R,3S)-N-(4-(2-cyclohexylacetamido)phenyl)-3-aminocyclopentanecarboxamide hydrochloride]  0.10
35. Nc1ccc(CC(=O)N2CCN(C(=O)CC3CCCCC3)CC2)cc1 [ENMD-1070, N^1-2-cyclohexylethanoyl-N^4-[2-(4-aminophenyl)-ethanoyl]-piperazine]  0.05
36. CC(C)CC(=O)Nc1ccc(NC(=O)CCCCCN)cc1 [ENMD-1391, N-(4-(3-methylbutanamido)phenyl)-6-aminohexanamide]  0.01
